For test [1], the target named is F-ATP synthase (subunit c) (Mycobacterium tuberculosis, UniProt A1KI93). It counts as biochemical.
For test [2], the target named is T1, Mtε (F-ATP synthase subunit ε) (Mycobacterium tuberculosis, UniProt P9WPV1).
T1 construct: gene atpC; recombinant Mtε, 121 residues (N-terminal domain M1-E87, C-terminal domain I90-D121), 15N-labeled
The class given is binding.

Test [3] deals with T2, F-ATP synthase (subunit ε) (Mycolicibacterium smegmatis, UniProt A0R1Z9).
T2 construct: gene atpC
Briefly: NADH-driven ATP synthesis of inverted membrane vesicles. The class given is biochemical.

In test [4] the target is F-ATP synthase (subunit ε) (Mycobacterium tuberculosis, UniProt A1KI99). The class given is biochemical.
Sequence of F-ATP synthase (subunit ε) (Mycobacterium tuberculosis, UniProt A1KI99) (A1KI99 whole entry): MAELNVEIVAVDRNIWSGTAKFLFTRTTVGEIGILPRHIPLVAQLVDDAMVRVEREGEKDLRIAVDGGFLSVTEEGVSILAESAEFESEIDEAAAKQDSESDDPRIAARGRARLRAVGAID
Sequence of F-ATP synthase (subunit ε) (Mycobacterium tuberculosis, UniProt A1KI99) (A1KI96 whole entry partner): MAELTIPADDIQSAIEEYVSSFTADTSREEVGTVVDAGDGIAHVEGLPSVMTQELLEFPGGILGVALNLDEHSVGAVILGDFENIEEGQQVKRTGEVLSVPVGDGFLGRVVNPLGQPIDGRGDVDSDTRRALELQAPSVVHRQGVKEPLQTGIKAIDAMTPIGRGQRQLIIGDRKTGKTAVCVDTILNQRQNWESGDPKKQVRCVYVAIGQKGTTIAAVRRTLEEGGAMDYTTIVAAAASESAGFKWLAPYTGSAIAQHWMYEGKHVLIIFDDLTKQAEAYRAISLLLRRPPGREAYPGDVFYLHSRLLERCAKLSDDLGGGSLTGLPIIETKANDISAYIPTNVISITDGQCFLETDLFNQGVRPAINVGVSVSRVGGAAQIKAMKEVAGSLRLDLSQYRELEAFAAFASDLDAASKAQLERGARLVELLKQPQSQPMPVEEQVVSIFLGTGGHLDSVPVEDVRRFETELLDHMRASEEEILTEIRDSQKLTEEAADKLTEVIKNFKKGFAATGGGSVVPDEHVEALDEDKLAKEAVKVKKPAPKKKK
Sequence of F-ATP synthase (subunit ε) (Mycobacterium tuberculosis, UniProt A1KI99) (A1KI98 whole entry partner): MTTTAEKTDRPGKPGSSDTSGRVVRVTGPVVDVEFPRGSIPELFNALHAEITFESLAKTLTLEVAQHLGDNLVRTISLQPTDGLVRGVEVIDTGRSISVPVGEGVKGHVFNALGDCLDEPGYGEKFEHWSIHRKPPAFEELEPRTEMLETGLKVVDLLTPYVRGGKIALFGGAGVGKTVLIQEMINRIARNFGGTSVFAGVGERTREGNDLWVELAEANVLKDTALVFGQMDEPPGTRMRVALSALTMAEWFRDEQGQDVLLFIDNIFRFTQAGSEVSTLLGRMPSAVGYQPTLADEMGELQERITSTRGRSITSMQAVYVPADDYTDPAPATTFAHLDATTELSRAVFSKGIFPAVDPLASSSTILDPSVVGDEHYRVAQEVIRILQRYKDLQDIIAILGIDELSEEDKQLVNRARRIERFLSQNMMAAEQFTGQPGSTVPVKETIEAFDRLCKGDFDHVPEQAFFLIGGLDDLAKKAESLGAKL
Sequence of F-ATP synthase (subunit ε) (Mycobacterium tuberculosis, UniProt A1KI99) (A1KI97 whole entry partner): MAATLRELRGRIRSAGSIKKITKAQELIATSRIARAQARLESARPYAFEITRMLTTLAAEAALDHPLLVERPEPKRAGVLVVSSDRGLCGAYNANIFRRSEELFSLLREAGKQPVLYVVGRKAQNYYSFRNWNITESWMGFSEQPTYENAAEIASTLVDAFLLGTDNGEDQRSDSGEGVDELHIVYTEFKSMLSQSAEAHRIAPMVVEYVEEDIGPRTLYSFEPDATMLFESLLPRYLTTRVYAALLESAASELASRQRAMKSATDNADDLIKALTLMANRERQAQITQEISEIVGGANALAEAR
Sequence of F-ATP synthase (subunit ε) (Mycobacterium tuberculosis, UniProt A1KI99) (A1KI93 whole entry partner): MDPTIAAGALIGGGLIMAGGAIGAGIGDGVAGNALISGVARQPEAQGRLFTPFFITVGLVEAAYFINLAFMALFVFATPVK

T1 sequence (P9WPV1 whole entry, the tested form may be a part): as the sequence (A1KI99 whole entry) above
Sequence of F-ATP synthase (subunit c) (A1KI93 whole entry): as the sequence (A1KI93 whole entry partner) above
Sequence of F-ATP synthase (subunit c) (A1KI99 whole entry partner): as the sequence (A1KI99 whole entry) above
Sequence of F-ATP synthase (subunit c) (A1KI96 whole entry partner): as the sequence (A1KI96 whole entry partner) above
Sequence of F-ATP synthase (subunit c) (A1KI98 whole entry partner): as the sequence (A1KI98 whole entry partner) above

A word on the IC50: it is the midpoint of a concentration-inhibition curve. High values mean a need for much substance, low ones inhibition by little substance. Molecule `COc1nc2ccc(Br)cc2cc1[C@@H](c1ccccc1)[C@@](O)(CCN(C)C)c1cccc2ccccc12` [bedaquiline] registered an IC50 in test [1] of 7.05 ± 1.32 nM.

As to `O=C(O[C@@H]1Cc2c(O)cc(O)cc2O[C@@H]1c1cc(O)c(O)c(O)c1)c1cc(O)c(O)c(O)c1` [epigallocatechin gallate], the “1H-15N HSQC NMR titration, Mtε:EGCG 1:2” value in test [2] is reported as “gradual line broadening with increasing molar ratios were observed, which demonstrate binding of EGCG with Mtε”. The IC50 in test [3] came out at 155.6 ± 1.2 nM; in test [4], 2200 ± 300 nM.
